Measurements: patent US20100256014A1, “NOVEL AS160-LIKE PROTEIN, TEST SYSTEMS, METHODS AND USES INVOLVING IT FOR THE IDENTIFICATION OF DIABETES TYPE 2 THERAPEUTICS” (priority 2007, published 2010)

Legend:
Format in all cases: cell-based, rat
AKT (Ser 473) [1] = experiment: Western blot of AKT phosphorylation (Ser 473)
Description: For Western blot analysis proteins were separated on SDS-PAGE gels (4-12% resolving gel, Invitrogen), transferred to PVDF membranes (Roche) and blocked with Roti-Block® (Roth) for 1 hour. Membranes were incubated with primary antibodies overnight. The anti-AS160 antibody was from Upstate. Membranes were washed in TBST and incubated with the appropriate secondary horseradish peroxidase conjugated antibody (Santa Cruz). Immunoreactive bands were visualized with LumiLight (Roche) and detected with Lumi-lmager (Böhringer Ingelheim).
In order to examine tetracycline- and insulin-dependent expression of isoform2 of AS160 protein in L6-GLUT4myc cells containing AS160-like, a western blot analysis was performed. The expression of AS160-like protein was induced with 1 μg/ml doxycyclin for 48 hours as described above. Subsequently, the cells were stimulated with insulin (5 nM to 50 nM; Sanofi-Aventis) for 20 minutes. Cell extracts were prepared, separated via SDS-PAGE and transferred to a PVDF membrane as described above.
The AKT inhibitor Calb. had no effect on the phosphorylation of AKT (Ser 473) (FIG. 11A). […] Phosphorylation of AKT on Ser 473 was detected with a phospho-specific antibody from Biosource (Cat No.: 44-621G).

L6-GLUT4myc cells [2] = experiment: Uptake of 2-deoxyglucose in L6-GLUT4myc cells with tet-inducible isoform2 of AS160
Description: For all examples […]T4myc cells containing isoform2 of AS160 were grown in MEMα (PAN) supplemented with 10% fetal calf serum (FCS) (PAA, tet-free), 2 μg/ml blasticidin (Calbiochem), 0.5 μg/ml puromycin (InvivoGen), 200 μg/ml hygromycin (Invitrogen). Expression of isoform2 of AS160 was induced with 1 μg/ml doxycyclin (Sigma). L6-wildtype (wt) (ATCC: CRL-1458) cells were grown in MEMα+GlutaMax (Gibco) supplemented with 10% FCS (PAA, tet-free) and 1% penicillin/streptomycin (PAA). […]T4myc cells were grown in MEMα+GlutaMax (Gibco) supplemented with 10% FCS (PAA, tet-free), 1% penicillin/streptomycin (PAA) and 2 μg/ml blasticidin (Calbiochem). All cells were grown at 37° C. and 5% CO2. […]T4myc cells containing isoform2 of AS160 were incubated in starve medium (MEMα) 3-4 hours prior to each experiment. To examine glucose uptake of the cells, the respective cells were plated in 96 well Cytostar-T scintillating microplates (Amersham). After 48 hours cells were serum-starved (3-4 hours) and treated with inhibitors as indicated. Uptake of 2-deoxyglucose (0.01 MBq per well, Amersham) was performed as already described (Voss et al., 2005). Nonspecific uptake was determined in the presence of 40 μM cytochalasin B (Calbiochem). This value was subtracted from all other values. Measurement occurred in a Wallac Microbeta counter (Perkin Elmer). Uptake of 2-deoxyglucose is presented as counts per […] (cpm).

AKT (Ser 473) [3] = experiment: In-cell western, phospho-AKT
Source text: (§1) To study phosphorylation of AKT and AS160 the cells described in Example 2 were used. AS160 is activated by phosphorylation on critical motifs (RXRXXS/T). Known phospho-sites in AS160 are Ser 570, Ser 588, Thr 642 and Thr 751 (Sano et al., 2003). One of the kinases responsible for the activation of AS160 is AKT (Kane et al., 2002). In order to determine the activation status of the isoform2 of AS160 the In-cell western blot technique was used. This method allows the detection of specific proteins directly in 96 well plates without preparation of cell extracts. The specific antibody used in this assay recognizes the phosphorylated Thr 642 phosphorylation site of AS160 and AS160-like protein.
(§2) For this, cells were seeded into 96-well plates (black, Nunc) and grown for 48 hours. Cells were starved for 3-4 hours with MEMα (PAN) containing 2% horse serum (Cambrex). After removal of medium cells were fixed in 3.7% freshly prepared para-formaldehyde (Sigma) for 20 minutes. Cells were permeabilized with PBS+0.1% Triton-X-100. Blocking was performed with Odyssey blocking buffer (Licor) overnight at 4° C. Primary antibodies were incubated for 2 hours at room temperature. The anti-phosphoAKT (Ser 473, Cat No.: 44-621 G) and the anti-phosphoAS160 (Thr 642, Cat No.: 44-1071 G) were from Biosource. After incubation of the primary antibody, cells were washed with PBS+0.1% Tween20. The secondary anti-rabbit-IgG-800-CW antibody (Rockland Cat No.: 611-131-122) was incubated for 1 hour. For detection of DNA TO-PRO3 dye (Molecular Probes, Cat No.: T3605) was used. Fluorescence signals (FIG. 6) are presented as relative units (RU).

AS160 (Thr 642) = experiment: In-cell western, phospho-AS160
Source text: as §1, §2

GLUT4-myc = experiment: Immunofluorescence localization of GLUT4-myc; conditions: insulin 100 nM, 20 minutes; L6-GLUT4-myc-tetR-AS160-like
Description: Cells were grown on sterile cover slides in 12 well plates. Expression of isoform2 of AS160 was induced with doxycyclin treatment for 48 hours. Serum-starved cells were treated with 100 nM insulin for 20 minutes or were left untreated. After stimulation, cells were fixed in 3.75% para-formaldehyde (Sigma) for 20 minutes. Subsequently, cells were permeabilised with 0.1% TritonX100 in PBS (Icon Biomedicals) or left unpermeabilised (as indicated) for 5 minutes at room temperature. The permeabilisation procedure allows the detection of intracellular localized compartments. Membrane-bound proteins are visualized without permeabilising the cells. Blocking of cells occurred for a minimum of 1 hour in PBS+1% BSA (USB). Primary antibodies (monoclonal anti-myc, Santa Cruz, sc-40 and polyclonal anti-AS160 Upstate) were incubated overnight. The secondary antibodies used are anti-rabbit Alexa488 to detect isoform2 of AS160 and anti-mouse A546 to detect GLUT4-myc. Incubation occurred is for 1 hour (dark). Cells were mounted in 15 μl Dako Cytomation Fluorescent Mounting Medium (DakoCytomation), examined by confocal laser-scanning microscopy with Leica DM IRE2 and analyzed with Leica DM SDK software.

GLUT4 = GLUT4 translocation, laser-scanning fluorescence microplate cytometry (ACUMEN)
Description: For this purpose, a technique suitable for screening of compounds was applied. Laser-scanning fluorescence microplate cytometry (ACUMEN technique, LIT) allows the distinct multiparametric analysis of single fluorescent cells in microplates (Bowen and Wylie, 2006). For laser-scanning fluorescence microplate cytometer (Acumen) cells were plated in 96 well plates (Biocat, black). Serum-starved cells were treated as indicated. Briefly, cells were fixed in 3.75% para-formaldehyde (Sigma) for 20 minutes. Subsequently, quenching occurred with […] NH4Cl. Cells were blocked with an adequate blocking solutions for a minimum of 1 hour. Primary antibody (monoclonal anti-myc 9E10, Santa Cruz, sc-40) was incubated for 1 hour. The secondary goat-anti mouse IgG (Alexa Fluor 488, Molecular Probes) was incubated in the presence of Sytox-orange for 1 hour (Bowen and Wylie, 2006).
Based on this highly sensitive procedure it is possible to screen various cell numbers for plasma-membrane based GLUT4-myc-display. Cells were counter-stained with a DNA dye (SytoxOrange) to confirm equal cell numbers.

L6-GLUT4myc cells [4] = experiment: Tetracycline-inducible GFP expression (functionality of the tet-repressor); conditions: pCDNA5/TO-GFP; addition of doxycyclin; data not shown
Description: L6-GLUT4myc cells containing AS160-like were grown in MEMα (PAN) supplemented with 10% fetal calf serum (FCS) (PAA, tet-free), 2 μg/ml blasticidin (Calbiochem), 0.5 μg/ml puromycin (InvivoGen), 200 μg/ml hygromycin (Invitrogen). Functionality of the tet-repressor was controlled with a tetracycline-inducible GFP expression plasmid (pCDNA5/TO-GFP). In the absence of tetracycline (or doxycyclin) only a small number of cells express GFP. Addition of doxycyclin increases the number of GFP expressing cells about 10 fold (data not shown).

[5] = with doxycyclin-induced expression of isoform 2 of AS160
[6] = without expression of isoform 2 of AS160
[7] = metformin 800 μM overnight, normal and insulin-resistant conditions
[8] = high glucose plus insulin conditions
[9] = high glucose plus insulin overnight (25 mM glucose+10 nM insulin)

1 L-6-hydroxymethyl-chiro-inositol 2-(R)-2-O-methyl-3-O-octadecylcarbonate [AKT inhibitor Calb., reference compound]
effect on insulin-stimulated phosphorylation of AKT (Ser 473) (AKT (Ser 473) [1]; pre-incubation 1 hour (wortmannin 200 nM, AKT inhibitor Calb. 50 μM), then insulin 10 nM 20 minutes): no effect

insulin like growth factor-1 [IGF-1]
uptake of glucose (2-deoxyglucose), fold increase after stimulation (L6-GLUT4myc cells [2]; [5]): up to 5 fold
uptake of glucose (2-deoxyglucose), fold increase after stimulation (L6-GLUT4myc cells [2]; [6]): 3 fold

CN(C)C(=N)N=C(N)N [metformin, dimethylbiguanide, reference compound]
effect on activation of AKT (AKT (Ser 473) [3]; [7]): no effect
effect on activation of AS160 (AS160 (Thr 642); [7]): no effect

N#CC(=C(/N)Sc1ccccc1N)/C(C#N)=C(\N)Sc1ccccc1N [U0126, reference compound]
effect on uptake of glucose (L6-GLUT4myc cells [2]; U0126 10 μM, 20 μM, additional stimulation with 5 nM insulin, mainly in cells expressing isoform2 of AS160): significantly improved uptake of glucose

insulin
localization of GLUT4-myc (GLUT4-myc): induces the translocation of GLUT4-myc to the plasma membrane
time at which the maximum of glucose uptake is observed (L6-GLUT4myc cells [2]; 50 nM insulin, time points 5, 15, 30 minutes): ≤ 5 min
uptake of glucose (2-deoxyglucose), fold increase after stimulation (L6-GLUT4myc cells [2]; [5]): up to 4 fold
AKT phosphorylation signal compared to untreated conditions (normal Glc) (AKT (Ser 473) [3]; [8]): 72%
AKT (Ser 473) phosphorylation under insulin-resistant conditions (AKT (Ser 473) [3]; [9]): dose-dependent manner
AKT phosphorylation (Ser 473) (AKT (Ser 473) [3]; normal conditions, insulin 20 minutes): dose-dependent manner
phosphorylation of AKT (Ser 473) (AKT (Ser 473) [1]; insulin 5 nM to 50 nM, 20 minutes): induced the phosphorylation of AKT (Ser 473)
increased translocation of GLUT4 to the plasma membrane (GLUT4; 100 nM insulin 20 minutes, doxycyclin-induced expression of AS160-like protein): ~15%
GLUT4 translocation (GLUT4; 100 nM insulin alone (no AS160-like expression)): slightly induced
AS160 phosphorylation signal compared to untreated conditions (normal Glc) (AS160 (Thr 642); [8]): 72%
AS160 (Thr 642) phosphorylation under insulin-resistant conditions (AS160 (Thr 642); [9]): dose-dependent manner
phosphorylation of full-length or isoform2 of AS160 (Thr 642) (AS160 (Thr 642); normal conditions, doxycyclin-induced cells, insulin 20 minutes): dose-dependent manner

C[C@H]1c2cccc(O)c2C(O)=C2C(=O)[C@]3(O)C(O)=C(C(N)=O)C(=O)[C@@H](N(C)C)[C@@H]3[C@@H](O)[C@@H]21 [doxycyclin, reference compound]
increase of the number of GFP expressing cells (L6-GLUT4myc cells [4]): about 10 fold
increase of glucose uptake induced by doxycyclin (L6-GLUT4myc cells [2]; doxycyclin 48 hours, insulin 20 minutes, correlated with isoform2 of AS160 protein levels): dose-dependent manner

NC(=O)c1ncn([C@@H]2O[C@H](CO)[C@@H](O)[C@H]2O)c1N [AICAR, 5-Aminoimidazole-4-carboxaide 1-beta-D-ribofuranoside, reference compound]
effect of expression of isoform 2 of AS160 on stimulated glucose uptake (L6-GLUT4myc cells [2]; with vs without isoform 2 of AS160): no additional effect
uptake of glucose (2-deoxyglucose), fold increase after stimulation (L6-GLUT4myc cells [2]; [6]): 1.5 fold
